# Target: T1, HDAC6 enzyme (Homo sapiens, UniProt Q9UBN7)
# T1 construct: prepared by transducing full length HDAC6 gene into Sf-9 insect cells; GST; purchased SignalChem; host or cells: Sf-9 insect cells
# T1 sequence (Q9UBN7 1-1215): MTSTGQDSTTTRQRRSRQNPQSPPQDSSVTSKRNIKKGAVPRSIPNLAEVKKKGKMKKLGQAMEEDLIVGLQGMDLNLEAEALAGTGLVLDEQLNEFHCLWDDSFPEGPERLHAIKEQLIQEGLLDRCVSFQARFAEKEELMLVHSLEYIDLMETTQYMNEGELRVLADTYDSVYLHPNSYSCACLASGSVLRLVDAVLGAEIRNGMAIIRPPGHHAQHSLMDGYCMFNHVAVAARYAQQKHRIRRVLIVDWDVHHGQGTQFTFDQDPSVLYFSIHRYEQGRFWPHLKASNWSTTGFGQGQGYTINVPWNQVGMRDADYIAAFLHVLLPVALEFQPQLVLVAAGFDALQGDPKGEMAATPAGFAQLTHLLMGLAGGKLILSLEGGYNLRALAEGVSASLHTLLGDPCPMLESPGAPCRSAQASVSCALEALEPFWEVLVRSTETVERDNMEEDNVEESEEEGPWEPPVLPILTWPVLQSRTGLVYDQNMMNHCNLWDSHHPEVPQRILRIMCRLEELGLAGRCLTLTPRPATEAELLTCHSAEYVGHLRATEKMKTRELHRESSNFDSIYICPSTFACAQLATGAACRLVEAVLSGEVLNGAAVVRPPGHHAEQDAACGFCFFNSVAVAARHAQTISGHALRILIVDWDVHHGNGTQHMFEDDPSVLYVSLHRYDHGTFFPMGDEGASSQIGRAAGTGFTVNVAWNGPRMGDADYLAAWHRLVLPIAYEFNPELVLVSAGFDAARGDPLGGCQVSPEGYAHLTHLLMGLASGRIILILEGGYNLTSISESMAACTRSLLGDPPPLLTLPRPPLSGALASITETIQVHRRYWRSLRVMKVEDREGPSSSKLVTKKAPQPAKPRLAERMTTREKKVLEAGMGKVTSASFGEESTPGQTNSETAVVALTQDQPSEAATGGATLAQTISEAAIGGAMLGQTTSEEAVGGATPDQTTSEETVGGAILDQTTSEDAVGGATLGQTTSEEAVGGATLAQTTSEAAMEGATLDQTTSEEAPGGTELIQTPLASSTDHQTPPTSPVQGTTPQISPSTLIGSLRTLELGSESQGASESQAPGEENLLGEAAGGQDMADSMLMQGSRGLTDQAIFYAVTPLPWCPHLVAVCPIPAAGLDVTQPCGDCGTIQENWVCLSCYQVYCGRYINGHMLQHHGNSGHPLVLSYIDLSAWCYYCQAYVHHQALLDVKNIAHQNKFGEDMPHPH
# Experiment: HDAC6 enzyme inhibitory assay (HDAC-Glo I/II Assay kit, luminescence)
# Assay type: biochemical
# Details: 10 μM test compound, wells without enzyme = 100% inhibition; for inhibition at 10 µM: read-out: HDAC6 inhibitory rate (%) (10 μM)
# Method in brief: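 Full-length human HDAC6, GST-purified from Sf-9 cells, was preincubated with compound for 60 min at room temperature in Tris-HCl pH 7.5 buffer with glutathione and Tween-20. Substrate-developer was then added, and luminescence was read after 20 min at room temperature. Inhibition was expressed relative to no-enzyme wells, taken as 100% inhibition.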
inhibition at 10 µM [%],HDAC6 inhibitory rate (%) (10 μM) (10 µM),Structure (SMILES)
101,–,"COCCOc1ccc(CN(C)N2Cc3ccc(-c4nnc(C(F)F)o4)cc3C2=O)cc1 [Example 55c, 6-[5-(difluoromethyl)-1,3,4-oxadiazol-2-yl]-2-[{[4-(2-methoxyethoxy)phenyl]methyl} (methyl)amino]-2,3-dihydro-1H-isoindol-1-one]"
100,–,"O=C1c2cc(-c3nnc(C(F)F)o3)ccc2CN1N(Cc1ccc(F)cc1)Cc1ccc(F)cc1 [Example 7c, 2-{bis[(4-fluorophenyl)methyl]amino}-6-[5-(difluoromethyl)-1,3,4-oxadiazol-2-yl]-2,3-dihydro-1H-isoindol-1-one]"
99,–,"Cc1cc(Cn2ccnc2-c2cc(F)cc(-c3nnc(C(F)F)o3)c2)on1 [Example 62a, 2-(difluoromethyl)-5-(3-fluoro-5-{1-[(3-methyl-1,2-oxazol-5-yl)methyl]-1H-imidazol-2-yl}phenyl)-1,3,4-oxadiazole]"
101,–,"CC1(c2ccc(F)cc2)Oc2ccc(-c3nnc(C(F)F)o3)cc2C(=O)N1CC1CC1 (stereo not drawn) [Example 47b, 3-(cyclopropylmethyl)-6-[5-(difluoromethyl)-1,3,4-oxadiazol-2-yl]-2-(4-fluorophenyl)-2-methyl-2,3-dihydro-4H-1,3-benzoxazin-4-one]"
99,–,"COCC1(c2ccccc2)Oc2ccc(-c3nnc(C(F)F)o3)cc2C(=O)N1C (stereo not drawn) [Example 51b, 6-[5-(difluoromethyl)-1,3,4-oxadiazol-2-yl]-2-(methoxymethyl)-3-methyl-2-phenyl-2,3-dihydro-4H-1,3-benzoxazin-4-one]"
95,–,"O=C1c2cc(-c3nnc(C(F)F)o3)ccc2CN1Nc1c(F)c(F)c(F)c(F)c1F [Example 32c, 6-[5-(difluoromethyl)-1,3,4-oxadiazol-2-yl]-2-(pentafluoroanilino)-2,3-dihydro-1H-isoindol-1-one]"
99,–,"Cc1noc(Cn2ccnc2-c2cc(F)cc(-c3nnc(C(F)F)o3)c2)n1 [Example 56a, 5-[(2-{3-[5-(difluoromethyl)-1,3,4-oxadiazol-2-yl]-5-fluorophenyl}-1H-imidazol-1-yl)methyl]-3-methyl-1,2,4-oxadiazole]"
101,–,"CN(Cc1cncc(Cl)c1)N1Cc2ccc(-c3nnc(C(F)F)o3)cc2C1=O [Example 60c, 2-{[(5-chloropyridin-3-yl)methyl] (methyl)amino}-6-[5-(difluoromethyl)-1,3,4-oxadiazol-2-yl]-2,3-dihydro-1H-isoindol-1-one]"
99,–,"Fc1cc(-c2nnc(C(F)F)o2)cc(-c2nccn2Cc2ccc(Cl)cc2)c1 [Example 22a, 2-(3-{1-[(4-chlorophenyl)methyl]-1H-imidazol-2-yl}-5-fluorophenyl)-5-(difluoromethyl)-1,3,4-oxadiazole]"
99,–,"Fc1cc(-c2nnc(C(F)F)o2)cc(-c2nccn2Cc2ccccc2)c1 [Example 4a, 2-[3-(1-benzyl-1H-imidazol-2-yl)-5-fluorophenyl]-5-(difluoromethyl)-1,3,4-oxadiazole]"
98,–,"O=C(CC(F)(F)F)N(Cc1cnn(C2CC2)c1)N1Cc2ccc(-c3nnc(C(F)F)o3)cc2C1=O [Example 12c, N-[(1-cyclopropyl-1H-pyrazol-4-yl)methyl]-N-{6-[5-(difluoromethyl)-1,3,4-oxadiazol-2-yl]-1-oxo-1,3-dihydro-2H-isoindol-2-yl}-3,3,3-trifluoropropanamide]"
100,–,"CN1C(=O)c2cc(-c3nnc(C(F)F)o3)ccc2OC1(C)c1ccc(F)cc1 (single isomer, unassigned; isomer 1) [Example 8b, 6-[5-(difluoromethyl)-1,3,4-oxadiazol-2-yl]-2-(4-fluorophenyl)-2,3-dimethyl-2,3-dihydro-4H-1,3-benzoxazin-4-one (Optical Isomer 1)]"
98,–,"CC(C)(C)OC(=O)N1CCC(Oc2cccnc2-c2cc(F)cc(-c3nnc(C(F)F)o3)c2)CC1 [Example 16a, tert-butyl 4-[(2-{3-[5-(difluoromethyl)-1,3,4-oxadiazol-2-yl]-5-fluorophenyl}pyridin-3-yl)oxy]piperidine-1-carboxylate]"
99,–,"Fc1cc(-c2nnc(C(F)F)o2)cc(-c2nccn2CC2CCC(F)(F)CC2)c1 [Example 28a, 2-(3-{1-[(4,4-difluorocyclohexyl)methyl]-1H-imidazol-2-yl)-5-fluorophenyl)-5-(difluoromethyl)-1,3,4-oxadiazole]"
–,100,"CN1C(=O)c2cc(-c3nnc(C(F)F)o3)cnc2CC1(C)c1ccc(F)cc1 (single isomer, unassigned) [Example 1b, 3-[5-(difluoromethyl)-1,3,4-oxadiazol-2-yl]-7-(4-fluorophenyl)-6,7-dimethyl-7,8-dihydro-1,6-naphthyridin-5(6H)-one]"
100,–,"O=C1NN(c2ccc(F)c(Cl)c2)Cc2ncc(-c3nnc(C(F)F)o3)cc21 [Example 35b, 7-(3-chloro-4-fluorophenyl)-3-[5-(difluoromethyl)-1,3,4-oxadiazol-2-yl]-7,8-dihydropyrido[2,3-d]pyridazin-5(6H)-one]"
100,–,"CN1C(=O)c2cc(-c3nnc(C(F)F)o3)ccc2OC1(C)c1ccc(F)c(F)c1 (stereo not drawn) [Example 32b, 6-[5-(difluoromethyl)-1,3,4-oxadiazol-2-yl]-2-(3,4-difluorophenyl)-2,3-dimethyl-2,3-dihydro-4H-1,3-benzoxazin-4-one]"
98,–,"FC(F)c1nnc(-c2ccnc(-c3nc(Cl)cn3Cc3ccccn3)c2)o1 [Example 39a, 2-{4-chloro-1-[(pyridin-2-yl)methyl]-1H-imidazol-2-yl}-4-[5-(difluoromethyl)-1,3,4-oxadiazol-2-yl]pyridine]"
88,–,"O=C1NN(CC(F)(F)F)Cc2ccc(-c3nnc(C(F)F)o3)cc21 [Example 15b, 7-[5-(difluoromethyl)-1,3,4-oxadiazol-2-yl]-3-(2,2,2-trifluoroethyl)-3,4-dihydrophthalazin-1(2H)-one]"
98,–,"CC(=O)N1CCC(Cn2ccnc2-c2cc(F)cc(-c3nnc(C(F)F)o3)c2)CC1 [Example 31a, 1-{4-[(2-{3-[5-(difluoromethyl)-1,3,4-oxadiazol-2-yl]-5-fluorophenyl}-1H-imidazol-1-yl)methy]piperidin-1-yl}ethan-1-one]"
99,–,"CCOC(=O)CN(C)N1Cc2ccc(-c3nnc(C(F)F)o3)cc2C1=O [Example 46c, ethyl N-{6-[5-(difluoromethyl)-1,3,4-oxadiazol-2-yl]-1-oxo-1,3-dihydro-2H-isoindol-2-yl}-N-methylglycinate]"
100,–,"CN1C(=O)c2cc(-c3nnc(C(F)F)o3)ccc2OC1(C)c1ccc(C(F)(F)F)cc1 (stereo not drawn) [Example 17b, 6-[5-(difluoromethyl)-1,3,4-oxadiazol-2-yl]-2,3-dimethyl-2-[4-(trifluoromethyl)phenyl]-2,3-dihydro-4H-1,3-benzoxazin-4-one]"
100,–,"CN1C(=O)c2cc(-c3nnc(C(F)F)o3)ccc2CN1c1ccc(F)cc1 [Example 10b, 7-[5-(difluoromethyl)-1,3,4-oxadiazol-2-yl]-3-(4-fluorophenyl)-2-methyl-3,4-dihydrophthalazin-1(2H)-one]"
99,–,"FC(F)c1nnc(-c2cncc(-c3nccn3Cc3ccccc3)c2)o1 [Example 37a, 3-(1-benzyl-1H-imidazol-2-yl)-5-[5-(difluoromethyl)-1,3,4-oxadiazol-2-yl]pyridine]"
